Key:
[1] = tested on: ORYSAT (Rice, Tebonnet); assay: Flooded paddy, post-transplant rice tolerance; assay type: in vivo, Oryza sativa, (L.) Tebonnet; conditions: flooded paddy, post-transplant rice, rated 3-4 weeks after treatment, 0-9 rating scale
Method in brief: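 Visual 0–9 injury rating against a control, covering stand, vigor, malformation, size, chlorosis and overall appearance. Treatment was post-transplant onto flooded containers (water 1.5–3 cm deep, silt loam) holding two ten-day-old cv. Tebonnet seedlings, maintained on greenhouse benches.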

[2] = tested on: ZEAMX (Corn, Field); assay: Postemergence herbicidal evaluation; assay type: in vivo, Zea mays, L.; conditions: postemergence
Method in brief: (§1)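 Seedlings grown for about two weeks were sprayed postemergence and then kept under standard greenhouse care. Injury was rated visually 4–5 weeks after treatment on a 0–9 scale against untreated controls, and ratings from repeat tests were averaged.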

[3] = tested on: IPOHE (Ipomoea hederacea); assay: Postemergence herbicidal evaluation; assay type: in vivo, (L.) Jacq.; conditions: postemergence
Method in brief: as §1

[4] = tested on: AMBEL (Ambrosia artemisifolia); assay: Postemergence herbicidal evaluation; assay type: in vivo, L.; conditions: postemergence
Method in brief: as §1

[5] = tested on: CASOB (Cassia obtusifolia); assay: Postemergence herbicidal evaluation; assay type: in vivo, L.; conditions: postemergence
Method in brief: as §1

[6] = tested on: CHEAL (Chenopodium album); assay: Postemergence herbicidal evaluation; assay type: in vivo, L.; conditions: postemergence
Method in brief: as §1

[7] = tested on: ECHORC (Echinochloa oryzoides); assay: Flooded paddy, preemergence weed control; assay type: in vivo, Echinochloa oryzoides (Ard.) Fritsch.; conditions: rated 3-4 weeks after treatment, 0-9 rating scale
Method in brief: (§2)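 Greenhouse paddy test, preemergence. Seeds planted in the top 0.5 cm of silt loam soil, which remained flooded at 1.5–3 cm depth. Scored 0-9 by visual comparison with control.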

[8] = tested on: ORYSAT (Rice, Tebonnet); assay: Postemergence herbicidal evaluation; assay type: in vivo, Oryza sativa, (L.) Tebonnet; conditions: postemergence
Method in brief: as §1

[9] = tested on: ABUTH (Abutilon theophrasti); assay: Postemergence herbicidal evaluation; assay type: in vivo, Medic.; conditions: postemergence
Method in brief: as §1

[10] = tested on: ECHCG (Echinochloa crus-galli); assay: Postemergence herbicidal evaluation; assay type: in vivo, (L.) Beau; conditions: postemergence
Method in brief: as §1

[11] = tested on: ORYSAT (Rice, Tebonnet); assay: Preemergence herbicidal evaluation; assay type: in vivo, Oryza sativa, (L.) Tebonnet; conditions: rated 4-5 weeks after treatment
[12] = tested on: SAGPY (Sagittaria pygmaea); assay: Flooded paddy, preemergence weed control; assay type: in vivo, L.; conditions: rated 3-4 weeks after treatment, 0-9 rating scale
Method in brief: as §2

[13] = tested on: ABUTH (Abutilon theophrasti); assay: Preemergence herbicidal evaluation; assay type: in vivo, Medic.; conditions: rated 4-5 weeks after treatment
[14] = tested on: AMBEL (Ambrosia artemisifolia); assay: Preemergence herbicidal evaluation; assay type: in vivo, L.; conditions: rated 4-5 weeks after treatment
Method in brief: (§3)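 Test compound is applied in aqueous acetone to cups just after seeding. Cups are watered and maintained on greenhouse benches. Each cup is scored 0–9 by eye relative to a control after four to five weeks.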

[15] = tested on: CASOB (Cassia obtusifolia); assay: Preemergence herbicidal evaluation; assay type: in vivo, L.; conditions: rated 4-5 weeks after treatment
Method in brief: as §3

[16] = tested on: CHEAL (Chenopodium album); assay: Preemergence herbicidal evaluation; assay type: in vivo, L.; conditions: rated 4-5 weeks after treatment
Method in brief: as §3

[17] = tested on: TRZAWR (Wheat, Winter, cv Riband); assay: Preemergence herbicidal evaluation; assay type: in vivo, Triticum aestivum; conditions: rated 4-5 weeks after treatment
Method in brief: as §3

[18] = tested on: TRZAWR (Wheat, Winter, cv Riband); assay: Postemergence herbicidal evaluation; assay type: in vivo, Triticum aestivum; conditions: postemergence
Method in brief: as §1

`CCCC1COC(c2nsc3ccc(-n4c(=O)cc(C(F)(F)F)n(C)c4=O)cc23)O1` (stereo not drawn) [Compound 77, 1-methyl-3-[3-(4-propyl-1,3-dioxolan-2-yl)-1,2-benzisothiazol-5-yl]-6-(trifluoromethyl)uracil] was tested, and the “herbicidal rating, ORYSAT (rice tolerance)” value (shortened to “herbicidal rating, ORYSAT”) ([1]; rate 0.0080 kg/ha) was 0.0, the “herbicidal rating, ORYSAT” value ([1]; rate 0.0320 kg/ha) was 3.0 and the “herbicidal rating, ORYSAT” value ([1]; rate 0.1250 kg/ha) was 7.0. It also gave a ZEAMX herbicidal rating ([2]; rate 0.0320 kg/ha) of 3.0, a ZEAMX herbicidal rating ([2]; rate 0.0620 kg/ha) of 3.5 and an IPOHE herbicidal rating ([3]; rate 0.0320 kg/ha) of 9.0. It also gave an IPOHE herbicidal rating ([3]; rate 0.0620 kg/ha) of 9.0, an AMBEL herbicidal rating ([4]; rate 0.0320 kg/ha) of 9.0 and an AMBEL herbicidal rating ([4]; rate 0.0620 kg/ha) of 9.0. For the same molecule, the CASOB herbicidal rating ([5]; rate 0.0320 kg/ha) was 4.0, the CASOB herbicidal rating ([5]; rate 0.0620 kg/ha) was 6.0 and the CHEAL herbicidal rating ([6]; rate 0.0320 kg/ha) was 9.0. The CHEAL herbicidal rating ([6]; rate 0.0620 kg/ha) was 9.0, the “herbicidal rating, ECHORC” value ([7]; rate 0.0080 kg/ha) was 0.0 and the “herbicidal rating, ECHORC” value ([7]; rate 0.0320 kg/ha) was 5.0. The “herbicidal rating, ECHORC” value ([7]; rate 0.1250 kg/ha) was 9.0, the ORYSAT herbicidal rating ([8]; rate 0.0320 kg/ha) was 2.0 and the ORYSAT herbicidal rating ([8]; rate 0.0620 kg/ha) was 4.0. It also gave an ABUTH herbicidal rating ([9]; rate 0.0320 kg/ha) of 9.0, an ABUTH herbicidal rating ([9]; rate 0.0620 kg/ha) of 9.0 and an ECHCG herbicidal rating ([10]; rate 0.0320 kg/ha) of 4.0. The ECHCG herbicidal rating ([10]; rate 0.0620 kg/ha) was 4.0, the “Preemergence herbicidal rating ORYSAT” value ([11]; Rate 0.0620 kg/ha) was 5.0 and the “Preemergence herbicidal rating ORYSAT” value ([11]; Rate 0.1250 kg/ha) was 5.0. The “Preemergence herbicidal rating ORYSAT” value ([11]; Rate 0.2500 kg/ha) was 5.5, the “herbicidal rating, SAGPY” value ([12]; rate 0.0080 kg/ha) was 0.0 and the “herbicidal rating, SAGPY” value ([12]; rate 0.0320 kg/ha) was 0.0. The “herbicidal rating, SAGPY” value ([12]; rate 0.1250 kg/ha) was 5.0, the “Preemergence herbicidal rating ABUTH” value ([13]; Rate 0.0620 kg/ha) was 9.0 and the “Preemergence herbicidal rating ABUTH” value ([13]; Rate 0.1250 kg/ha) was 9.0. For the same molecule, the “Preemergence herbicidal rating ABUTH” value ([13]; Rate 0.2500 kg/ha) was 9.0, the “Preemergence herbicidal rating AMBEL” value ([14]; Rate 0.0620 kg/ha) was 8.5 and the “Preemergence herbicidal rating AMBEL” value ([14]; Rate 0.1250 kg/ha) was 9.0. The “Preemergence herbicidal rating AMBEL” value ([14]; Rate 0.2500 kg/ha) was 9.0, the “Preemergence herbicidal rating CASOB” value ([15]; Rate 0.0620 kg/ha) was 2.5 and the “Preemergence herbicidal rating CASOB” value ([15]; Rate 0.1250 kg/ha) was 4.5. The “Preemergence herbicidal rating CASOB” value ([15]; Rate 0.2500 kg/ha) was 7.5, the “Preemergence herbicidal rating CHEAL” value ([16]; Rate 0.0620 kg/ha) was 9.0 and the “Preemergence herbicidal rating CHEAL” value ([16]; Rate 0.1250 kg/ha) was 9.0. The “Preemergence herbicidal rating CHEAL” value ([16]; Rate 0.2500 kg/ha) was 9.0, the “Preemergence herbicidal rating TRZAWR” value ([17]; Rate 0.0620 kg/ha) was 6.0 and the “Preemergence herbicidal rating TRZAWR” value ([17]; Rate 0.1250 kg/ha) was 6.0. The “Preemergence herbicidal rating TRZAWR” value ([17]; Rate 0.2500 kg/ha) was 7.0, the TRZAWR herbicidal rating ([18]; rate 0.0320 kg/ha) was 2.0 and the TRZAWR herbicidal rating ([18]; rate 0.0620 kg/ha) was 3.5.
